Source: patent US20120252723A1, “Regulating the Amino Acid Pool Used for the Acute-Phase Protein Synthesis” (N.V. Nutricia, priority 2009, published 2012)
“Also recorded” adds a separate entry of the source.

Tests used:
HepG2 cells [1] = assay: Fibrinogen secretion by HepG2 cells (ELISA of media); format: cell-based, human; conditions: for fibrinogen secretion in media in which one amino acid was omitted: named amino acid omitted, isonitrogenously compensated with the other amino acids; for inhibition of IL-6 induced fibrinogen secretion: IL-1β 10 ng/ml, insulin 1 μM
Description: (§1) The effects of either the amino acid concentration or the amino acid composition on the acute-phase protein response in a human hepatocellular cell line (HepG2 cell) were studied. As model components, the production of fibrinogen and albumin were studied.
(§2) Cell culture: Human hepatoma HepG2 cells (ATCC HB-8065) were maintained in DMEM supplemented with 10% heat inactivated fetal calf serum (Life Technologies) with 2 mM glutamine and streptomycin/penicillin in Costar T75 flasks at 37° C. in a humidified atmosphere of 95% air-5% CO2. For experiments HepG2 cells were incubated in RPMI-1640 media without fetal calf serum. All experiments were carried out in 6 wells plates.
(§3) Incubations: HepG2 cells were grown in 6 wells plates to confluence, washed with DMEM ([…]) and subsequently incubated during 24-h with IL-6 and the custom media (RPMI-1640; RPMI-1640 select amino kit Gibco BRL). After the incubations, the media were collected and stored at −20° C. until analysis. The cells were then washed with phosphate-buffered saline (PBS) and lysed with 0.1M NaOH. The protein content was determined using the Bio-Rad Protein assay (Dye Reagent Concentrate, Bio-Rad Laboratories, Inc., Hercules Calif., USA) using bovine albumin (Sigma Aldrich) as standard. The data are presented as μg acute-phase protein in the supernatant per milligram protein cell content.
(§4) Antibodies: Rabbit anti-human fibrinogen and horseradish peroxidase (HRP)—conjugated rabbit anti-human fibrinogen were obtained from DakoCytomation (Denmark A/S, Glostrup, Denmark), anti-human albumin, HRP-conjugated anti-human albumin were obtained from Dade Behring B.V. (Leusden, the Netherlands).
(§5) ELISAs: Albumin and fibrinogen: 96-well flat-bottom Costar EIA/RIA plates were coated overnight with primary antibody in PBS at predetermined optimal concentration. After each incubation step, the plates were washed with 0.1% Tween-20 (Merck Eurolab B.V., Roden, the Netherlands) in PBS. After washing, the plates were blocked with 5% Protifar (Nutricia B.V., Zoetermeer, the Netherlands) in PBS during 90 min. Subsequently, the samples and antigen were incubated in 0.1% Tween-20 in PBS during 90 min. Next, the plates were incubated with HRP-conjugated antibodies in 0.1% Tween-20 in PBS during 90 min. The colorimetric reaction was carried out with undiluted 1-Step Ultra TMB-ELISA (Pierce, Rockland, Ill., USA). The reaction was stopped with 2 M sulphuric acid. The absorbances of the samples were measured at λ=450 nm.

HepG2 cells [2] = assay: Albumin secretion by HepG2 cells (ELISA of media); format: cell-based, human; conditions: for albumin secretion in media in which one amino acid was omitted: named amino acid omitted, isonitrogenously compensated with the other amino acids
Description: as §1, §2, §3, §4, §5

[3] = added in combination with IL-6 10 ng/ml, n=6

Q: For N=C(N)NCCC[C@H](N)C(=O)O [Arg, arginine], which “fibrinogen secretion in media in which one amino acid was omitted” value (HepG2 cells [1]) is on record?
A: Its value is “significantly decreased; also recorded: significantly inhibited”.

Q: And the “albumin secretion in media in which one amino acid was omitted” value (HepG2 cells [2])?
A: The value was “significantly decreased; also recorded: significantly inhibited”.

Q: How did the “fibrinogen secretion in media in which one amino acid was omitted” value (HepG2 cells [1]) turn out when N[C@@H](CO)C(=O)O [Ser, serine] was run?
A: The value was “significantly decreased; also recorded: significantly inhibited”.

Q: What about the “albumin secretion in media in which one amino acid was omitted” value (HepG2 cells [2]) of the same molecule?
A: Its value is “significantly decreased; also recorded: significantly inhibited”.

Q: How did the “inhibition of IL-6 induced fibrinogen secretion” value (HepG2 cells [1]; [3]) turn out when “IL-1β: cytokine, used at 10 ng/ml [reference compound]” was run?
A: The value was “approximately 25%”.

Q: What does the source list for “IL-6: Human IL-6 obtained from Sigma Aldrich [reference compound]”?
A: fibrinogen secretion (excretion) from HepG2 cells (HepG2 cells [1]; incubation with IL-6, range 1-10 ng/ml, 24-h, n=6): concentration-dependent relationship; also recorded: significantly induces; albumin secretion (excretion) from HepG2 cells (HepG2 cells [2]; incubation with IL-6 or other cytokines/hormones, 24-h, n=6): no significant effects; also recorded: no effect

Q: How did the “enhancing effect on IL-6 induced fibrinogen secretion” value (HepG2 cells [1]; added in combination with IL-6 10 ng/ml, dexamethasone 1 μM, n=6) turn out when C[C@@H]1C[C@H]2[C@@H]3CCC4=CC(=O)C=C[C@]4(C)[C@@]3(F)[C@@H](O)C[C@]2(C)[C@@]1(O)C(=O)CO [dexamethasone, reference compound] was run?
A: Its value is 20%.

Q: What does the source list for N[C@@H](CS)C(=O)O [cysteine]?
A: fibrinogen secretion in media in which one amino acid was omitted (HepG2 cells [1]): significantly decreased; also recorded: significantly inhibited; albumin secretion in media in which one amino acid was omitted (HepG2 cells [2]): significantly decreased; also recorded: significantly inhibited

Q: How did the “inhibition of IL-6 induced fibrinogen secretion” value (HepG2 cells [1]; [3]) turn out when insulin [reference compound] was run?
A: The value was 50%.
